These results are taken from patent publication US10137079B2, “Transdermal composition for treating pain” (priority 2014, dated 2018).

In data set [1] the test system is skin. Conditions: in vivo. The source says: Menthol can optionally be added to overcome the burning sensation caused by the capsaicin. […] 13, 2012 has reported that skin can burn with menthol concentrations above 3% (http://www.fda.gov/Drugs/DrugSafety/ucm318858.htm). Thus, in one embodiment, the concentration of menthol in the ethosome compositions is less than about 3% by weight. In another embodiment, the concentration of menthol in the ethosome compositions is about 2% by weight.

Data set [2] relates to skin. As to conditions: FDA Safety Announcement Sep. 13, 2012; cited from earlier work.

Regarding `CC1CCC(C(C)C)C(O)C1` (centres unmarked) [Menthol], the burning sensation result in data set [1] is listed as “can cause a burning sensation on its own”. Besides, the “menthol concentrations at which skin can burn” value in data set [2] was “above 3%”.
